Reference: US20250215029A1 (Recludix Pharma, Inc., priority 2022, published 2025)

target: T1, pY705-STAT3 in PBMC (Homo sapiens, UniProt P40763); experiment: MSD-pSTAT-PBMC Assay (pSTAT3, IL-6 stimulated); format: cell-based; details: PBMC, compound 3 hrs, then 10 ng/mL IL-6 for 10 min; Table 115; read-out: STAT3
T1 construct: Cryopreserved Peripheral Blood Mononuclear Cells (PBMC) are from AllCells; host or cells: cryopreserved PBMC
Procedure, shortened: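 MSD electrochemiluminescence read-out: total STAT captured, probed with anti-pY641-STAT6 or anti-pY705-STAT3. Human PBMC, 3 h compound pretreatment, 10 min stimulation (IL-4 1 ng/mL or IL-6 10 ng/mL). Unstimulated signal subtracted, DMSO-normalized, variable-slope IC50.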

T1 sequence (P40763 whole entry): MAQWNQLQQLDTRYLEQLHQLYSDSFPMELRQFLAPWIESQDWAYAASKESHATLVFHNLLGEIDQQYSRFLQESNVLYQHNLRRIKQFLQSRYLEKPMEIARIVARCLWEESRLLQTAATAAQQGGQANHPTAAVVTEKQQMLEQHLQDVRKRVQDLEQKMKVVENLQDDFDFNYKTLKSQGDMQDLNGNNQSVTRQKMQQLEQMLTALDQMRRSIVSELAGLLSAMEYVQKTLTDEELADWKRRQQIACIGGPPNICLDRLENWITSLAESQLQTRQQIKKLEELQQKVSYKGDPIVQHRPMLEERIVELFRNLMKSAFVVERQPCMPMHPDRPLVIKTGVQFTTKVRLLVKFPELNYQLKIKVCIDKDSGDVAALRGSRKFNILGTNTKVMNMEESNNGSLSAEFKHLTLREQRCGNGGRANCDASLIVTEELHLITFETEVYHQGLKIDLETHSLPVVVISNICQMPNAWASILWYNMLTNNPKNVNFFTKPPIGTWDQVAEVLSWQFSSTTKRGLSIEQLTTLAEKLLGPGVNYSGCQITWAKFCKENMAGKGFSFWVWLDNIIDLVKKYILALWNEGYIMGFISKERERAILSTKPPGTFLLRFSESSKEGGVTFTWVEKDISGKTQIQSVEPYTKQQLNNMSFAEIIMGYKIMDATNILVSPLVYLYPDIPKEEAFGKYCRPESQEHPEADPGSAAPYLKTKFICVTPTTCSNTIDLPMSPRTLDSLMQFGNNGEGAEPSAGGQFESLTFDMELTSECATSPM

For COc1ccncc1C1CN(C(=O)[C@@H]2CC[C@@H]3CCC[C@H](NC(=O)c4cc5cc([C@@H](F)[P@](=O)(N[C@@H](C)C(=O)OCC(C)(C)C)Oc6ccccc6)ccc5s4)C(=O)N32)C1 (single isomer, unassigned) [Compound 1057], which IC50 is on record?
The IC50 was < 0.1 µM.

With CCCOC(=O)[C@H](C)NP(=O)(Cc1ccc2sc(C(=O)N[C@H]3CCC[C@H]4CC[C@@H](C(=O)N5CC(c6cnccc6CC)C5)N4C3=O)cc2c1)Oc1ccccc1 (stereo partly drawn) [Compound 257, propyl (((2-(((3S,6S,9aS)-3-(3-(4-ethylpyridin-3-yl)azetidine-1-carbonyl)-5-oxooctahydro-1H-pyrrolo[1,2-a]azepin-6-yl)carbamoyl)benzo [b]thiophen-5-yl)methyl)(phenoxy)phosphoryl)-L-alaninate] as the compound, how does the IC50 read?
Its IC50 is < 0.1 µM.

CC(C)CC(=O)SCCOP(=O)(Cc1ccc2sc(C(=O)N[C@H]3CCC[C@H]4CC[C@@H](C(=O)N5CC(c6cccnc6)C5)N4C3=O)cc2c1)OCCSC(=O)CC(C)C [Compound 1084, S,S′-(((((2-(((3S,6S,9aS)-5-oxo-3-(3-(pyridin-3-yl)azetidine-1-carbonyl)octahydro-1H-pyrrolo[1,2-a]azepin-6-yl)carbamoyl)benzo [b]thiophen-5-yl)methyl)phosphoryl)bis(oxy))bis(ethane-2,1-diyl)) bis(3-methylbutanethioate)] was tested. Which IC50 did it give?
The IC50 was 0.1 to 1 µM.

Which IC50 does the source give for CCCOC(=O)[C@H](C)NP(=O)(Cc1ccc2sc(C(=O)N[C@H]3CCC[C@H]4CC[C@@H](C(=O)N5CC(c6cncnc6N(C)C)C5)N4C3=O)cc2c1)Oc1ccccc1 (stereo partly drawn) [Compound 1070, propyl (((2-(((3S,6S,9aS)-3-(3-(4-(dimethylamino)pyrimidin-5-yl)azetidine-1-carbonyl)-5-oxooctahydro-1H-pyrrolo[1,2-a]azepin-6-yl)carbamoyl)benzo [b]thiophen-5-yl)methyl)(phenoxy)phosphoryl)-L-alaninate] here?
The IC50 was < 0.1 µM.

With CCOC(=O)[C@H](C)NP(=O)(Cc1ccc2sc(C(=O)N[C@H]3CCC[C@H]4CC[C@@H](C(=O)N5CC(c6cccnc6)C5)N4C3=O)cc2c1)Oc1ccccc1 (stereo partly drawn) [Compound 422, ethyl (((2-(((3S,6S,9aS)-5-oxo-3-(3-(pyridin-3-yl)azetidine-1-carbonyl)octahydro-1H-pyrrolo[1,2-a]azepin-6-yl)carbamoyl)benzo [b]thiophen-5-yl)methyl)(phenoxy)phosphoryl)-L-alaninate] as the compound, how does the IC50 read?
Its IC50 is < 0.1 µM.

Which IC50 does the source give for CCCOC(=O)[C@H](C)NP(=O)(Cc1ccc2sc(C(=O)N[C@H]3CCC[C@H]4CC[C@@H](C(=O)N5CC(c6c(F)ccnc6C)C5)N4C3=O)cc2c1)Oc1ccccc1 (stereo partly drawn) [Compound 978, propyl (((2-(((3S,6S,9aS)-3-(3-(4-fluoro-2-methylpyridin-3-yl)azetidine-1-carbonyl)-5-oxooctahydro-1H-pyrrolo[1,2-a]azepin-6-yl)carbamoyl)benzo [b]thiophen-5-yl)methyl)(phenoxy)phosphoryl)-L-alaninate] here?
Its IC50 is 0.1 to 1 µM.

Which IC50 does the source give for CCCOC(=O)[C@H](C)N[P@@](=O)(Oc1ccccc1)[C@H](F)c1ccc2sc(C(=O)N[C@H]3CCC[C@H]4CC[C@@H](C(=O)N5CC(c6cccnc6)C5)N4C3=O)cc2c1 [Compound 464] here?
Its IC50 is < 0.1 µM.

With COC[C@H](NP(=O)(Cc1ccc2sc(C(=O)N[C@H]3CCC[C@H]4CC[C@@H](C(=O)N5CC(c6cccnc6)C5)N4C3=O)cc2c1)Oc1ccccc1)C(=O)OCC(C)C (stereo partly drawn) [Compound 945, isobutyl O-methyl-N-(((2-(((3S,6S,9aS)-5-oxo-3-(3-(pyridin-3-yl)azetidine-1-carbonyl)octahydro-1H-pyrrolo[1,2-a]azepin-6-yl)carbamoyl)benzo [b]thiophen-5-yl)methyl)(phenoxy)phosphoryl)-L-serinate] as the compound, how does the IC50 read?
The IC50 was 0.1 to 1 µM.

How did the IC50 turn out when C[C@H](NP(=O)(Cc1ccc2sc(C(=O)N[C@H]3CCC[C@H]4CC[C@@H](C(=O)N5CC(c6cccnc6)C5)N4C3=O)cc2c1)Oc1ccccc1)C(=O)OCCC(F)(F)F (stereo partly drawn) [Compound 291, 3,3,3-trifluoropropyl (((2-(((3S,6S,9aS)-5-oxo-3-(3-(pyridin-3-yl)azetidine-1-carbonyl)octahydro-1H-pyrrolo[1,2-a]azepin-6-yl)carbamoyl)benzo [b]thiophen-5-yl)methyl)(phenoxy)phosphoryl)-L-alaninate] was run?
Its IC50 is < 0.1 µM.

How did the IC50 turn out when CN=S(C)(=O)CC1(OC)CN(C(=O)C2CCC3CCCC(NC(=O)c4cc5cc(C(F)(F)P(=O)(OCCSC(=O)C(C)(C)C)OCCSC(=O)C(C)(C)C)ccc5s4)C(=O)N32)C1 [Compound 1015, S,S′-(((((2-(((3S,6S,9aS)-3-(3-((N,S-dimethyl-sulfonimidoyl)methyl)-3-methoxyazetidine-1-carbonyl)-5-oxooctahydro-1H-pyrrolo[1,2-a]azepin-6-yl)carbamoyl)benzo [b]thiophen-5-yl)difluoromethyl)phosphoryl)bis(oxy))bis(ethane-2,1-diyl)) bis(2,2-dimethyl-propanethioate)] was run?
Its IC50 is < 0.1 µM.

With CCCOC(=O)[C@H](C)NP(=O)(Cc1ccc2sc(C(=O)N[C@H]3CC[C@H](C)C[C@H]4CC[C@@H](C(=O)N5CC(c6cnccc6C)C5)N4C3=O)cc2c1)Oc1ccccc1 (stereo partly drawn) [Compound 286, propyl (((2-(((3S,6S,9S,10aR)-9-methyl-3-(3-(4-methylpyridin-3-yl)azetidine-1-carbonyl)-5-oxodecahydropyrrolo [1,2-a]azocin-6-yl)carbamoyl)benzo [b]thiophen-5-yl)methyl)(phenoxy)phosphoryl)-L-alaninate] as the compound, how does the IC50 read?
The IC50 was < 0.1 µM.

How did the IC50 turn out when CCCOC(=O)[C@H](C)N[P@@](=O)(Oc1ccccc1)[C@@H](F)c1ccc2sc(C(=O)N[C@H]3C[C@@H](C)C[C@H]4CC[C@@H](C(=O)N5CC(c6cnccc6C)C5)N4C3=O)cc2c1 (single isomer, unassigned) [Compound 1037] was run?
Its IC50 is < 0.1 µM.

With CCCOC(=O)[C@H](C)NP(=O)(Cc1ccc2sc(C(=O)N[C@H]3CCC[C@H]4CC[C@@H](C(=O)N5CC(c6cccnc6)C5)N4C3=O)cc2c1)OCC (stereo partly drawn) [Compound 439, propyl (ethoxy((2-(((3S,6S,9aS)-5-oxo-3-(3-(pyridin-3-yl)azetidine-1-carbonyl)octahydro-1H-pyrrolo[1,2-a]azepin-6-yl)carbamoyl)benzo [b]thiophen-5-yl)methyl)phosphoryl)-L-alaninate] as the compound, how does the IC50 read?
The IC50 was 0.1 to 1 µM.

With CCCOC(=O)[C@H](C)NP(=O)(Cc1ccc2sc(C(=O)N[C@H]3CCC[C@H]4CC[C@@H](C(=O)N5CC(c6cnccc6N(C)C)C5)N4C3=O)cc2c1)OCC(F)(F)F (stereo partly drawn) [Compound 1025, propyl (((2-(((3S,6S,9aS)-3-(3-(4-(dimethylamino)pyridin-3-yl)azetidine-1-carbonyl)-5-oxooctahydro-1H-pyrrolo[1,2-a]azepin-6-yl)carbamoyl)benzo [b]thiophen-5-yl)methyl)(2,2,2-trifluoroethoxy)phosphoryl)-L-alaninate] as the compound, how does the IC50 read?
Its IC50 is < 0.1 µM.

With CCCOC(=O)[C@H](C)N[P@@](=O)(Oc1ccccc1)[C@H](F)c1ccc2sc(C(=O)N[C@H]3C[C@@H](C)C[C@H]4CC[C@@H](C(=O)N5CC(c6cnccc6C)C5)N4C3=O)cc2c1 (single isomer, unassigned) [Compound 1001] as the compound, how does the IC50 read?
Its IC50 is < 0.1 µM.

How did the IC50 turn out when CCCOC(=O)[C@H](C)NP(=O)(Cc1ccc2sc(C(=O)N[C@H]3CCC[C@H]4CC[C@@H](C(=O)N5CC(c6c(OC)ccnc6F)C5)N4C3=O)cc2c1)Oc1ccccc1 (stereo partly drawn) [Compound 980, propyl (((2-(((3S,6S,9aS)-3-(3-(2-fluoro-4-methoxypyridin-3-yl)azetidine-1-carbonyl)-5-oxooctahydro-1H-pyrrolo[1,2-a]azepin-6-yl)carbamoyl)benzo [b]thiophen-5-yl)methyl)(phenoxy)phosphoryl)-L-alaninate] was run?
Its IC50 is 1 to 3 µM.

How did the IC50 turn out when CCCOC(=O)[C@H](C)NP(=O)(Cc1ccc2sc(C(=O)N[C@H]3CC[C@H](C)C[C@H]4CC[C@@H](C(=O)N5CC(c6cnccc6F)C5)N4C3=O)cc2c1)Oc1ccccc1 (stereo partly drawn) [Compound 993, propyl (((2-(((3S,6S,9S,10aR)-3-(3-(4-fluoropyridin-3-yl)azetidine-1-carbonyl)-9-methyl-5-oxodecahydropyrrolo [1,2-a]azocin-6-yl)carbamoyl)benzo [b]thiophen-5-yl)methyl)(phenoxy)phosphoryl)-L-alaninate] was run?
Its IC50 is < 0.1 µM.

Which IC50 does the source give for CCOC(=O)[C@H](CC)NP(=O)(Cc1ccc2sc(C(=O)N[C@H]3CCC[C@H]4CC[C@@H](C(=O)N5CC(c6cccnc6)C5)N4C3=O)cc2c1)Oc1ccccc1 (stereo partly drawn) [Compound 944, ethyl (2S)-2-((((2-(((3S,6S,9aS)-5-oxo-3-(3-(pyridin-3-yl)azetidine-1-carbonyl)octahydro-1H-pyrrolo[1,2-a]azepin-6-yl)carbamoyl)benzo [b]thiophen-5-yl)methyl)(phenoxy)phosphoryl)amino) butanoate] here?
The IC50 was 0.1 to 1 µM.

same assay, conditions: STAT3, PBMC, compound 3 hrs, then 10 ng/mL IL-6 for 10 min; Table 115

How did the IC50 turn out when CCCCOC(=O)[C@@H]1CC(F)(F)CN1P(=O)(Cc1ccc2sc(C(=O)N[C@H]3CCC[C@H]4CC[C@@H](C(=O)N5CC(c6cccnc6)C5)N4C3=O)cc2c1)Oc1ccccc1 (stereo partly drawn) [Compound 295, butyl (2S)-4,4-difluoro-1-(((2-(((3S,6S,9aS)-5-oxo-3-(3-(pyridin-3-yl)azetidine-1-carbonyl)octahydro-1H-pyrrolo[1,2-a]azepin-6-yl)carbamoyl)benzo [b]thiophen-5-yl)methyl)(phenoxy)phosphoryl) pyrrolidine-2-carboxylate] was run?
Its IC50 is 1 to 3 µM.

For CCCOC(=O)[C@H](C)NP(=O)(Cc1ccc2sc(C(=O)N[C@H]3C[C@H](C)C[C@H]4CC[C@@H](C(=O)N5CC(c6cnccc6N(C)C)C5)N4C3=O)cc2c1)Oc1ccccc1 (stereo partly drawn) [Compound 1079, propyl (((2-(((3S,6S,8S,9aR)-3-(3-(4-(dimethylamino)pyridin-3-yl)azetidine-1-carbonyl)-8-methyl-5-oxooctahydro-1H-pyrrolo[1,2-a]azepin-6-yl)carbamoyl)benzo [b]thiophen-5-yl)methyl)(phenoxy)phosphoryl)-L-alaninate], which IC50 is on record?
Its IC50 is < 0.1 µM.
